In ChEMBL document CHEMBL1201862, “PubChem BioAssay data set” (2004):
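Growth conditions: 96-well plates. Treatment: test compound, 48 hours, 5 concentrations. Analysis: linear interpolation between bracketing concentrations; unreached endpoints set to highest concentration. The concentration for 50% growth inhibition is given as GI50.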 Calls of active or inactive are those of the source. Rule as the data show it: active = GI50 up to about 1.1 µM and inactive = higher.

Tests used:
Assay in all cases: NCI tumour cell line growth inhibition, 48 h
[1] = tested on: KM12
[2] = tested on: A549
[3] = tested on: Malme-3M
[4] = tested on: M14
[5] = tested on: ACHN
[6] = tested on: COLO 205
[7] = tested on: HOP-62
[8] = tested on: KM-20L2
[9] = tested on: RXF 393
[10] = tested on: CAKI-1
[11] = tested on: SK-MEL-28
[12] = tested on: HL-60
[13] = tested on: SR
[14] = tested on: MOLT-4
[15] = tested on: OVCAR-3
[16] = tested on: NCI-H226
[17] = tested on: M19-MEL
[18] = tested on: LOX IMVI
[19] = tested on: HT-29
[20] = tested on: T47D

Measured: GI50

c1coc(CNc2[nH]cnc3nncc2-3)c1
inactive: [1] > 100 µM | [2] > 100 µM | [3] > 100 µM | [4] > 100 µM | [5] > 100 µM | [6] > 100 µM | [7] > 100 µM | [8] > 100 µM | [9] > 100 µM | [10] > 100 µM | [11] > 100 µM | [12] 87.9 µM | [13] 57.1 µM | [14] > 100 µM | [15] > 100 µM | [16] > 100 µM | [17] > 100 µM | [18] > 100 µM | [19] > 100 µM

Cc1ccc(C(=O)O/N=C2/CCC/C2=C\c2ccccc2)cc1
inactive: [1] > 100 µM | [2] > 100 µM | [3] > 100 µM | [4] > 100 µM | [5] > 100 µM | [6] > 100 µM | [7] > 100 µM | [8] > 100 µM | [9] > 100 µM | [10] > 100 µM | [11] > 100 µM | [12] > 100 µM | [13] > 100 µM | [14] > 100 µM | [15] > 100 µM | [16] > 100 µM | [17] > 100 µM | [18] > 100 µM | [19] > 100 µM

CC(c1ccc(Br)cc1)C(C(=O)O)C(=O)O (centres undefined)
inactive: [1] > 100 µM | [2] > 100 µM | [3] > 100 µM | [4] > 100 µM | [5] > 100 µM | [6] > 100 µM | [7] > 100 µM | [8] > 100 µM | [9] > 100 µM | [10] > 100 µM | [11] > 100 µM | [12] > 100 µM | [13] > 100 µM | [14] > 100 µM | [15] > 100 µM | [16] > 100 µM | [17] > 100 µM | [18] > 100 µM | [19] > 100 µM

CN1c2c(O)nc(N)nc2NCC1CCNc1ccc(C(=O)NC(CCC(=O)O)C(=O)O)cc1 (centres undefined)
inactive: [1] 916 µM | [2] 242 µM | [3] 1410 µM | [4] 10.3 µM | [5] 45.4 µM | [6] 1330 µM | [7] 467 µM | [8] 573 µM | [9] 1010 µM | [10] 328 µM | [11] 695 µM | [12] 48.1 µM | [13] 25.5 µM | [14] 33 µM | [15] 857 µM | [16] 807 µM | [17] 222 µM | [18] 4.06 µM | [19] 19.6 µM | [20] 1860 µM

CCCCCCCC(=O)OC(CBr)COC(=O)C(C)(C)C (centres undefined)
inactive: [1] > 100 µM | [2] > 100 µM | [3] > 100 µM | [4] > 100 µM | [5] > 100 µM | [6] > 100 µM | [7] > 100 µM | [8] > 100 µM | [9] > 100 µM | [10] > 100 µM | [11] > 100 µM | [12] 38 µM | [13] 22.1 µM | [14] 28.9 µM | [15] > 68.2 µM | [16] > 100 µM | [17] > 84.1 µM | [18] > 63.2 µM | [19] > 88.5 µM

OCC[N+]12CCCN1CCC2
inactive: [1] > 100 µM | [2] > 100 µM | [3] > 100 µM | [4] > 100 µM | [5] > 100 µM | [6] > 100 µM | [7] > 100 µM | [8] > 100 µM | [9] > 100 µM | [10] > 100 µM | [11] > 100 µM | [12] > 100 µM | [13] > 100 µM | [14] > 100 µM | [15] > 100 µM | [16] > 100 µM | [17] > 100 µM | [18] > 100 µM | [19] > 100 µM

COc1ccc(/C=C2\CCC(CN(C)C)C2=O)cc1OC (centres undefined)
inactive: [1] 2.37 µM | [2] 17.2 µM | [3] 3.95 µM | [4] 6.87 µM | [5] 7 µM | [6] 2.07 µM | [7] 18.8 µM | [8] 12.8 µM | [9] 1.94 µM | [10] 4.8 µM | [11] 5.48 µM | [12] 2.07 µM | [13] 1.86 µM | [14] 1.29 µM | [15] 7.21 µM | [16] 13.2 µM | [17] 7 µM | [18] 1.91 µM | [19] 5.61 µM | [20] 5.41 µM

O=S(=O)(O)c1ccc(/N=N/c2nc(C(F)(F)F)c(C(F)(F)F)[nH]2)cc1
inactive: [1] > 100 µM | [2] 61.8 µM | [3] 29.2 µM | [4] 20.8 µM | [5] > 100 µM | [6] 74.8 µM | [7] 36.6 µM | [8] 76.7 µM | [9] 18.4 µM | [10] 29.2 µM | [11] 19.2 µM | [12] 32.1 µM | [13] 21.2 µM | [14] 24.2 µM | [15] 33 µM | [16] 31.5 µM | [17] 39.2 µM | [18] 15.8 µM | [19] 77.1 µM

O=C1C=C(Br)C(=O)C(Br)=C1
inactive: [1] > 100 µM | [2] > 100 µM | [3] > 100 µM | [4] > 100 µM | [5] > 85.5 µM | [6] > 61.4 µM | [7] > 100 µM | [8] > 100 µM | [9] > 100 µM | [10] > 100 µM | [11] > 100 µM | [12] 20.3 µM | [13] 31.8 µM | [14] 33.7 µM | [15] > 62.2 µM | [16] > 100 µM | [17] > 53.5 µM | [18] > 31.6 µM | [19] > 100 µM

CCOC(=O)c1[nH]c(COC(C)=O)c2c1CCCCCCCCCC2
inactive: [1] > 100 µM | [2] > 100 µM | [3] > 100 µM | [4] > 100 µM | [6] > 100 µM | [7] > 100 µM | [8] > 100 µM | [9] > 100 µM | [10] > 100 µM | [12] > 100 µM | [13] > 100 µM | [14] > 100 µM | [15] > 100 µM | [16] > 100 µM | [17] > 100 µM | [18] > 100 µM | [19] > 100 µM

COc1cc(/C=C\c2ccccc2)cc(OC)c1OC
inactive: [1] 4.04 µM | [2] 5.28 µM | [3] 2.95 µM | [4] 2.51 µM | [5] 6.98 µM | [6] 3.08 µM | [7] 2.9 µM | [8] 1.64 µM | [9] 1.84 µM | [10] 4.36 µM | [11] 6.28 µM | [12] 1.75 µM | [13] 3.71 µM | [14] 3.7 µM | [15] 2.29 µM | [16] 4.2 µM | [17] 5.31 µM | [18] 4.6 µM | [19] 2.75 µM
